# Data from US7354910B2, “Agent for treating inflammatory bowel diseases” (Seikagaku Kogyo Kabushiki Kaisha, priority 2001, dated 2008).
# System: trinitrobenzenesulfonic acid (TNBS)-induced inflammatory bowel disease model
# Assay: Effect of HA on TNBS-induced inflammatory bowel disease model
# Assay type: in vivo, rat
# Description: An inflammatory bowel disease model was prepared by carrying out irrigation of colon of a rat with 0.5 ml of 50 mg/ml TNBS (50% ethanol solution). The TNBS-induced inflammatory bowel disease model is a generally used model which has been established as an induced inflammatory bowel disease model (e.g., see GASTROENTEROLOGY, Vol. 109, No. 4, pp. 1344-1367 (1995), and the like).
# In order to examine effect of HA on inflammatory bowel diseases, the following drug effect and pharmacological test was carried out using the inflammatory bowel disease model prepared in the above.
# The inflammatory bowel disease model animals were divided into the following groups according to respective tested substances, and 2 ml of physiological saline solution (0.3% (w/v)) of each of the following tested substances was injected into the tail vein of each experimental animal.
# In the control group, the first administration was carried out just after the preparation of the above model, and then the administration was continuously carried out once a day for 20 days.
# In the HA post-administered group, the first administration was carried out just after the preparation of the above model, and then the administration was continuously carried out once a day for 20 days.
# In the HA pre-administered group, the first administration was carried out 24 hours before the preparation of the above model, and then the administration was continuously carried out once a day for 20 days.
# During the administration period of tested substances, surviving conditions of the animals were observed every day.
# In addition, observation and measurement of the following points were carried out on the animals survived on the 20th day after the first administration.
# Also, the following numerical values are expressed as “average value±standard error”.
# The large intestine was excised and cut open, and the contents were washed using physiological saline. After the adhered moisture was removed, the weight of the large intestine tissue was measured to calculate the weight per 1 cm bowel tissue. Also, the following numerical values are expressed as “average value±standard error”.
# Section samples of bowel tissue were prepared and observed under a light microscope.
# [1] = HA post-administered group in comparison with the control group, 20th day, light microscope, FIG. 3
substance,measurement,setting,value
sodium hyaluronate [HA],conditions of diarrhea,"HA administered groups, animals survived on the 20th day after the first administration, severe in control group",hardly observed
same,"cell infiltration, microscopic observation of bowel tissue",[1],inhibited significantly
same,"edema, microscopic observation of bowel tissue",[1],significantly alleviated
same,body weight (average value±standard error),"HA post-administered group, 20th day after the first administration, control 175 ± 4 g, p<0.001",203 ± 3 g
same,weight of the large intestine tissue per 1 cm bowel tissue (bowel tissue edema; average value±standard error),"HA post-administered group, 20th day after the first administration, control 448 ± 60, p<0.001",51 ± 1 mg/cm bowel tissue
same,survival ratio,"HA pre-administered group (first administration 24 hours before model preparation, 2 ml of 0.3% (w/v) into tail vein once a day), after a lapse of 200 hours",100%
same,survival rate in comparison with the control group,"each of the HA administered groups (post and pre), 2 ml of 0.3% (w/v) i.v. once a day for 20 days, p=0.0086 Logrank test, FIG. 1",significantly improved
